Our source for the IC50 values is patent US8512995B2, “DNA encoding polypeptide involved in biosynthesis of herboxidiene” (Eisai R&D Management Co., Ltd., priority 2008, dated 2013).

The assay relates to WiDr human colon cancer cells. The experiment in a line: Proliferation inhibitory action on WiDr human colon cancer cells (CellTiter-Glo luminescence). It counts as cell-based. Conditions: 72 h, 3 days culture, CellTiter-Glo luciferase luminescence as indicator of living cells. The method, then:
WiDr human colon cancer cells, which had been cultured in an RPMI1640 medium (manufactured by SIGMA) containing 10% fetal bovine serum, penicillin (100 units/mL) and streptomycin (100 μg/mL), were dispersed on a 96-well plate in an amount of 2×10^3 cells/90 μl/well. The cells were cultured in a CO2 incubator overnight. Thereafter, 10 μl of the aforementioned culture solution containing the compound HX354 or HX355 of 3-fold dilution series used in the aforementioned examples was added to the culture, and the mixture was then cultured. Three days later, 50 μl of CellTiter-Glo Luminescent Cell Viability Assay (Promega) was added to the culture, the mixture was then shaken for 2 minutes, and it was then left at rest for 15 minutes. Thereafter, luciferase luminescence was measured with a luminometer, and the measured luminescence was used as an indicator for the number of living cells
The concentrations (IC50 values) of HX354 and HX355, where the proliferation of the WiDr human colon cancer cells was inhibited by were obtained.

Each structure is given as a SMILES string. pIC50: −log10 of the molar value.

Take `CCC(OC)C(C)C1OC1(C)CC(C)/C=C/C=C(\C)C1OC(CC(=O)O)CCC1C` (centres unmarked) [HX354]: the pIC50 (commonly the IC50 on a negative log10 scale, so that one unit is a factor of ten) is 7.04.

For `CCC(O)C(C)C1OC1(C)CC(C)/C=C/C=C(\C)C1OC(CC(=O)O)CCC1C` (centres unmarked) [HX355], the pIC50 was 6.77. Against the preceding compound, the pIC50 is 0.27 log units lower.
